This note sets out measurements from paper PMC8530378, “Comparison of: (2S,4R)-4-[^18F]Fluoroglutamine, [^11C]Methionine, and 2-Deoxy-2-[^18F]Fluoro-D-Glucose and Two Small-Animal PET/CT Systems Imaging Rat Gliomas” (Frontiers in Oncology, 2021).

The test system of one series is BT4C gliomas. Put plainly: Ex vivo brain autoradiography, tumor-to-healthy brain uptake ratio. In kind it is in vivo. To be noted: ex vivo autoradiography of brain slices, BT4C glioma-bearing BDIX rats. The procedure:
Ex vivo biodistribution studies were performed for [^18F]FGln with a complete organ list and results are listed in the Supplementary Material Some subjects from each radiopharmaceutical imaging group were sacrificed for autoradiographical and histological studies immediately after PET imaging. All autoradiography images were analyzed with Carimas software (Turku PET Centre, Turku, Finland).
The excised brains containing tumors were frozen with liquid nitrogen, sectioned with a Leica CM3050S cryotome into alternating 20 and 8 µm slices on different slides for hematoxylin/eosin and future histochemical staining respectively. […] The slides were then stained with hematoxylin/eosin and digitally scanned with a Pannoramic 250 Flash slide scanner (3DHistech, Budapest, Hungary) Autoradiographs and light micrographs were then aligned in Carimas software (Turku PET Centre, Turku, Finland) and analyzed therein.

The next series has as its system orthotopic BT4C gliomas. Put plainly: Dynamic PET/CT imaging of orthotopic BT4C gliomas, tumor-to-healthy brain uptake ratio (TBR). Type of series: in vivo. The note with it: dynamic PET images, both cameras pooled, BT4C glioma-bearing BDIX rats. The procedure:
The 16 glioma-bearing BDIX-Ifz rats (herein "BDIX") for imaging studies (8 weeks old, 9 males and 7 females) were anesthetized under 2-2.5% isoflurane and given buprenorphine (0.01 mg/kg) and carprofen (5 mg/kg) for analgesia during surgery. […] All animals were sacrificed after either the final imaging (PET studies) or the final blood sample collection (metabolism studies) under deep isoflurane anesthesia (4%) via cervical dislocation after cardiac puncture to collect terminal blood samples. […] The injected amount of radioactivity also varied based on camera and radionuclide. […] Each PET image was separately examined, in the initial 20 s of frames for the amino-acid-based radiopharmaceuticals and 40-60 min frames for [^18F]FDG, to manually delineate heart left ventricle cavity voxels to use as a blood radioactivity estimation region of interest (ROI). […] The dynamic PET image data was then extracted from each separate image and converted to standardized uptake values (SUV) which account for ROI volume, mean ROI radioactivity, subject weight, and total injected radioactivity dose (corrected for decay, residual syringe and cannula radioactivity). The results are shown as SUV ROI radioactivity curves over time as well as tumor-to-healthy brain region (TBR) ratios for improved comparisons. […]

On to “2-deoxy-2-[^18F]fluoro-D-glucose [[^18F]FDG]”, for which the “Tumor-to-healthy brain uptake ratio” value in the series with BT4C gliomas is 2.93 ± 0.57. The “Average tumor-to-healthy brain tissue uptake ratio (TBR), maximum” value in the series with orthotopic BT4C gliomas is 1.41 ± 0.11.
